According to patent US20100286219A1, “1, 3-Dihydroimidazoles for Treating Cardiovascular Disorders” (BIAL - PORTELA & CA S.A., priority 2007, published 2010):

T1: human DβH (Homo sapiens, UniProt P09172)
T1 construct: endogenous in cells; host or cells: SK-N-SH cells
T1 sequence (P09172 1-617): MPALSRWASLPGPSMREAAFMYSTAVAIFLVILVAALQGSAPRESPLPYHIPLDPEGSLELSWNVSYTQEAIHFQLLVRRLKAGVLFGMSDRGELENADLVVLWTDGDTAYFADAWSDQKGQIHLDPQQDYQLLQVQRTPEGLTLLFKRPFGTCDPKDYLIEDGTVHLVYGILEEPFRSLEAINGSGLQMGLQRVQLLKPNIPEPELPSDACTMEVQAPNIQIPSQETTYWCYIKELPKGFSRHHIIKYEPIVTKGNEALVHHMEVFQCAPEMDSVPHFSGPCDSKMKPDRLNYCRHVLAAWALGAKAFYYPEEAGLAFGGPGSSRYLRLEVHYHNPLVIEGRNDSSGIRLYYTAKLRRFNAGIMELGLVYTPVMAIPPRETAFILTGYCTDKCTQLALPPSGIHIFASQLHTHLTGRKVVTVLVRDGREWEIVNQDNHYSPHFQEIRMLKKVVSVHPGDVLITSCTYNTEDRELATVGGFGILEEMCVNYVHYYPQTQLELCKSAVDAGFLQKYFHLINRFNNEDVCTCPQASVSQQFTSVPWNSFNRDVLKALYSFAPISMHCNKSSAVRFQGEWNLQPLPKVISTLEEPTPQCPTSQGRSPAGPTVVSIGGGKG

T2: DβH (Mus musculus, UniProt Q64237)
T2 construct: noradrenaline levels in the mouse left ventricle and brain parietal cortex 9 h after oral administration; from tissue; host or cells: mouse left ventricle and brain parietal cortex (in vivo)
T2 sequence (Q64237 1-622): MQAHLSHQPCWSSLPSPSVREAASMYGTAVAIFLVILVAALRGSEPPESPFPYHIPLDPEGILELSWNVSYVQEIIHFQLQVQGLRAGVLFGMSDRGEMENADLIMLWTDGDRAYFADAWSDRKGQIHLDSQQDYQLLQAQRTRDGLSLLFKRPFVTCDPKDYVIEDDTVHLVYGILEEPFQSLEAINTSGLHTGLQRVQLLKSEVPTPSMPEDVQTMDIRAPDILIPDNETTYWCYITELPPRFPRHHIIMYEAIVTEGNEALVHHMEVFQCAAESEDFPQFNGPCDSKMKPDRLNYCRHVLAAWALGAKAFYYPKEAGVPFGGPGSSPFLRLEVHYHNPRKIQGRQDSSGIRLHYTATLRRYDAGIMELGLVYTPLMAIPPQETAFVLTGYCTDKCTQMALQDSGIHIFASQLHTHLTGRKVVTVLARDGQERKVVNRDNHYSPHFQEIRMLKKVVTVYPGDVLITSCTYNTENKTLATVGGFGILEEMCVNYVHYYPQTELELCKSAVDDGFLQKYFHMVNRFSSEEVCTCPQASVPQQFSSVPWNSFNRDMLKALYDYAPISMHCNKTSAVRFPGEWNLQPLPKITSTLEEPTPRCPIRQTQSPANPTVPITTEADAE

T3: DβH (Rattus norvegicus, UniProt Q05754)
T3 construct: noradrenaline levels in the rat heart (left atrium and left ventricle) and brain (frontal and parietal cortex); from tissue; host or cells: rat heart (left atrium, left ventricle) and brain (frontal and parietal cortex), in vivo
T3 sequence (Q05754 1-620): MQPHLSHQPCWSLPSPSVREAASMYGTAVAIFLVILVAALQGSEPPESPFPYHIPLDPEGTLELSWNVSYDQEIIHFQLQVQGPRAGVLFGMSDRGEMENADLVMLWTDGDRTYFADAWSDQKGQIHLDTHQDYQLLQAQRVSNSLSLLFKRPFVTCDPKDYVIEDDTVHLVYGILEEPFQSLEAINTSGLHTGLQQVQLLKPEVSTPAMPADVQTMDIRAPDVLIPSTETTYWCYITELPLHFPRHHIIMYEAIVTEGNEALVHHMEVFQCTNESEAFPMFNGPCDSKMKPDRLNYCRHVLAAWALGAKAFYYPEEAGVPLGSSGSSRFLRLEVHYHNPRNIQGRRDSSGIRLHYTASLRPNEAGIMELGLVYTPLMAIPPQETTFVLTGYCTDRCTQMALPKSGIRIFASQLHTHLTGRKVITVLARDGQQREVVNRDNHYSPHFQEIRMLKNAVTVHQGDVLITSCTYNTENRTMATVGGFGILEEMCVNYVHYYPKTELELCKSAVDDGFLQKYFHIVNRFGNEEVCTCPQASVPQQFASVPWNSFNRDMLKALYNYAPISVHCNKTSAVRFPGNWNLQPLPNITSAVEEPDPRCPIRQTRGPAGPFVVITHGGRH


Tests used:
human DβH = target: T1, human DβH; assay: DβH activity in SK-N-SH cells (β-hydroxylation of dopamine to noradrenaline); assay type: cell-based
DβH [1] = target: T2, DβH; assay: Noradrenaline tissue levels in mouse heart and brain after oral administration; assay type: in vivo
Experimental: FIG. 1 is a graph showing the time-dependent decrease of noradrenaline levels in the left ventricle of mice treated orally with 100 mg/kg of 4 or nepicastat 1. Symbols are means of 5 determinations per group; vertical lines indicate S.E.M.
FIG. 2 is two graphs showing noradrenaline levels in the mouse left ventricle and brain parietal cortex 9 h after oral administration of 4 or nepicastat 1. Symbols are means of 5 determinations per group; vertical lines indicate S.E.M.
Time of maximum effect (Tmax) for noradrenaline tissue reduction by both 4 and 1 appears to be at 9 h post-dose (FIG. 1). Thereafter, noradrenaline tissue levels recover, reaching 50% recovery of initial tissue levels at 24 h.
For both 4 and 1, the maximal inhibitory effect was attained at a dose of 100 mg/kg.

DβH [2] = target: T3, DβH; assay: Noradrenaline tissue levels in rat heart and brain after oral administration; assay type: in vivo
Experimental: FIG. 3 is four graphs showing noradrenaline levels in the rat heart (left atrium and left ventricle) and brain (frontal and parietal cortex) 9 h after the oral administration of 4 or nepicastat 1. Columns are means of 5 determinations per group; vertical lines indicated S.E.M.

[3] = substrate: NCCc1ccc(O)c(O)c1; assay: cells, lysate or membranes; settings: other: SK-N-SH cells, increasing concentrations of dopamine
[4] = mouse, 9 h after oral administration

DβH activity, Mean ± SEM, % of control (human DβH; compound 5 μM) | IC50 against human DβH activity (in words) (human DβH; concentration-dependent decrease in β-hydroxylation of dopamine) | Time of maximum effect (Tmax) for noradrenaline tissue reduction (DβH [1]; mouse heart (left ventricle), 100 mg/kg oral) [h] | recovery of initial noradrenaline tissue levels (DβH [1]; mouse heart, 100 mg/kg, at 24 h) [%] | duration of action (in words) (DβH [1]; mouse heart, time course at 100 mg/kg) | dose at which maximal inhibitory effect was attained (DβH [1]; mouse left ventricle noradrenaline, 9 h after administration) [mg/kg] | effect on noradrenaline tissue levels in brain parietal cortex (DβH [1]; [4]) | dose dependence of effect upon noradrenaline (DβH [2]; rat (data not shown)) | time of maximum effect upon noradrenaline (DβH [2]; rat (data not shown)) [h] | effect on noradrenaline tissue levels in brain parietal cortex and brain frontal cortex (DβH [2]; rat, 9 h after oral administration) | Molecule | effect on noradrenaline levels in left ventricle (DβH [1]; [4]) | Km [3] [µM] | Vmax [3] [nmol mg protein-1 h-1]
0.0 ± 0.3 % of control | low nM range | 9 | 50 | long acting | 100 | produced a dose-dependent decrease | dependent on the dose administered | 9 | produced a marked decrease | NCc1c[nH]c(=S)n1[C@H]1CCc2c(F)cc(F)cc2C1 [Nepicastat 1, nepicastat, reference compound] | reduced noradrenaline levels in a dose-dependent manner |  | 
 |  |  |  |  |  |  |  |  |  | human DβH (Homo sapiens) (protein) MPALSRWASLPGPSMREAAFMYSTAVAIFLVILVAALQGSAPRESPLPYHIPLDPEGSLELSWNVSYTQEAIHFQLLVRRLKAGVLFGMSDRGELENADLVVLWTDGDTAYFADAWSDQKGQIHLDPQQDYQLLQVQRTPEGLTLLFKRPFGTCDPKDYLIEDGTVHLVYGILEEPFRSLEAINGSGLQMGLQRVQLLKPNIPEPELPSDACTMEVQAPNIQIPSQETTYWCYIKELPKGFSRHHIIKYEPIVTKGNEALVHHMEVFQCAPEMDSVPHFSGPCDSKMKPDRLNYCRHVLAAWALGAKAFYYPEEAGLAFGGPGSSRYLRLEVHYHNPLVIEGRNDSSGIRLYYTAKLRRFNAGIMELGLVYTPVMAIPPRETAFILTGYCTDKCTQLALPPSGIHIFASQLHTHLTGRKVVTVLVRDGREWEIVNQDNHYSPHFQEIRMLKKVVSVHPGDVLITSCTYNTEDRELATVGGFGILEEMCVNYVHYYPQTQLELCKSAVDAGFLQKYFHLINRFNNEDVCTCPQASVSQQFTSVPWNSFNRDVLKALYSFAPISMHCNKSSAVRFQGEWNLQPLPKVISTLEEPTPQCPTSQGRSPAGPTVVSIGGGKG |  | 20.6 ± 1.6 | 153.8±4.4
